From patent US5143931A, “Leukotriene antagonists containing tetrazolyl groups” (SmithKline Beecham Corporation, priority 1990, dated 1992) come the findings set out here.

Where a name gives a salt, the structure may show the parent alone.

The assay deals with T1, leukotriene induced contraction of guinea pig tracheal tissues (Cavia porcellus, UniProt Q2NNR5).
T1 sequence (Q2NNR5 1-340): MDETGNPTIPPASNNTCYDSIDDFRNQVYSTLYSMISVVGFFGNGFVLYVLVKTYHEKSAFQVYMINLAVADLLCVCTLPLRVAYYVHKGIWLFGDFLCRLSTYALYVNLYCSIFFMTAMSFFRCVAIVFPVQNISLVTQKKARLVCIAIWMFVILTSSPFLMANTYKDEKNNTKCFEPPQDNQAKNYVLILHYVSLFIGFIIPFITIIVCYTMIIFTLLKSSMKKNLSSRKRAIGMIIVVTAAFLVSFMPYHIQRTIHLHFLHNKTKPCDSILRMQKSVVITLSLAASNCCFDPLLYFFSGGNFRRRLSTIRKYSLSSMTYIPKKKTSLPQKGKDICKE
Kind of assay: Inhibition of leukotriene (LTD4) induced contraction of guinea pig tracheal spiral strips in vitro. Conditions: LTD4 concentration-response curves on guinea pig tracheal strips, 30 minutes pretreatment with test compound; current average where tested more than once; read-out: In Vitro -Log K8 (converted).
Regarding `CCCCCCCCCCCCc1ccccc1C(Sc1nnnn1CC(=O)O)C(=O)O` (stereo not drawn) [2(2-Dodecylphenyl)-2[(1-carboxymethyl-5-tetrazolyl)thio]acetic acid], the Kd was 794 nM. As for `CCCCCCCCCCCCc1ccccc1C(Sc1nnnn1C)C(=O)O` (stereo not drawn) [5-tetrazolyl, 0,1-CH3, C12 H25, CO2 H, 2-(2-Dodecylphenyl)-2[(1-methyl-5-tetrazolyl)thio]acetic acid], the figure is 1580 nM. Regarding `O=C(O)CCCn1nnnc1SC(C(=O)O)c1ccccc1CCCCCCCCc1ccccc1` (stereo not drawn) [dipotassium salt hydrate], the Kd was 1000 nM.
